{"source": "patent US10716830B2", "about": "“ERBB4 activator screening assay” (Children's Hospital Los Angeles, priority 2011, dated 2020)", "assay_type_in_all_cases": "cell-based, mouse", "key": {"[1]": {"tested_on": "EGFR, ErbB2, ErbB3, and ErbB4", "assay": "ErbB receptor phosphorylation by western blot with phospho-specific antibodies", "conditions": "YAMC-B4 cells (human ErbB4 construct); 10 min; HRG-1β 100 ng/ml, NRG4, EGF 10 ng/ml", "excerpt": "Conditionally immortalized, non-transformed young adult mouse colon (YAMC) epithelial cells were provided by Dr. Robert Whitehead (Whitehead, R. H., VanEeden, P. E., Noble, M. D., Ataliotis, P., and Jat, P. S. (1993) Proc Natl Acad Sci USA 90, 587-591). These cells express low levels of endogenous ErbB4; YAMC-B4 cells expressing a human ErbB4 construct were generated as previously described (Frey, M. R., Edelblum, K. L., Mullane, M. T., Liang, D., and Polk, D. B. (2009) Gastroenterology 136, 217-226). […]\n(§1) Cell lysates were extracted in modified RIPA buffer as previously described (Frey, M. R., Dise, R. S., Edelblum, K. L., and Polk, D. B. (2006) Embo J 25, 5683-5692), cleared by centrifugation, and boiled in Laemmli sample buffer. Samples were separated on SDS-polyacrylamide gels (6-10% as appropriate), blotted on PVDF membranes, and subjected to quantitative immunoblot using the Li-Cor Odyssey infrared detection system. Equal loading was monitored by immunoblots for actin and at least one additional protein.\nPhosphorylation of EGFR, ErbB2, ErbB3, and ErbB4 was determined by western blot analysis of cell lysates using phospho-specific antibodies. […]"}, "[2]": {"tested_on": "YAMC-B4 cells", "assay": "EdU proliferation assay", "conditions": "24 h stimulation", "experimental": "Proliferative index in fixed colon specimens was assessed by immunohistochemical stain for Ki-67. In vitro, cells were exposed to vehicle or growth factors for 24 h, then labeled with 5-ethynyl-2-deoxyuridine (EdU) for 2 h and fixed. Nuclei were marked with DAPI, and incorporated EdU was detected using a Click-iT EdU kit (Invitrogen).\nMost ErbB ligands stimulate multiple cellular processes, including proliferation and migration, in colon epithelial cells (Frey, M. R., Golovin, A., and Polk, D. B. (2004) J Biol Chem 279, 44513-44521). To determine if NRG4 is similarly broad in its cellular effects, we subjected YAMC-B4 cells to proliferation assays in the presence of NRG4. […] In vivo, the number of Ki67-positive nuclei per crypt in PBS vs. NRG4-injected mice was not altered 24 h post-injection (FIG. 4B)."}, "[3]": {"tested_on": "YAMC-B4 cells", "assay": "Cell migration/restitution (modified scratch) assay", "conditions": "8 h", "experimental": "Cells grown on fibronectin-coated plates were subjected to multiple circular wounds with a rotating silicone probe as previously described (Corredor, J., Yan, F., Shen, C. C., Tong, W., John, S. K., Wilson, G., Whitehead, R., and Polk, D. B. (2003) American journal of physiology. Cell physiology 284, C953-961). Cultures were photographed immediately and 8 h after wounding; % closure was determined by measuring wounds in Image.\nTo test the potential effect of NRG4-ErbB4 signaling on cell motility, we used a modified scratch assay for restitution/migration (Corredor, J., Yan, F., Shen, C. C., Tong, W., John, S. K., Wilson, G., Whitehead, R., and Polk, D. B. (2003) American journal of physiology. Cell physiology 284, C953-961). Over an 8 h period, NRG4 had no effect on the rate at which YAMC-B4 cells moved into the denuded area of a culture plate (FIG. 4C), while in contrast EGF caused a 54% increase in migration over control."}, "[4]": {"tested_on": "Akt", "assay": "Akt phosphorylation in whole cell lysates by western blot", "conditions": "YAMC-B4 cells; NRG4 100 ng/ml, 10 min", "excerpt": "as §1\n(§2) To identify signaling pathways which could be involved in NRG4-stimulated cell survival, we exposed YAMC-B4 cells to NRG4 or EGF and prepared whole cell lysates for western blot analysis. […] Furthermore, COX-2 expression, which is induced by either HRG-1β or EGF after 6 h exposure, and is required for cell survival induced by ErbB4-EGFR dimers (Frey, M. R., Hilliard, V. C., Mullane, M. T., and Polk, D. B. (2010) Laboratory Investigation 90, 1415-1424), was not induced by NRG4. Thus, NRG4 promotes cell survival through pathways at least partly distinct from those activated by other ligands."}, "[5]": {"tested_on": "ERK MAPK", "assay": "ERK MAPK phosphorylation in whole cell lysates by western blot", "conditions": "YAMC-B4 cells; NRG4 100 ng/ml, 10 min", "excerpt": "as §1, §2"}, "[6]": {"tested_on": "COX-2", "assay": "COX-2 expression in YAMC-B4 cells", "conditions": "6 h exposure", "experimental": "as §2"}}}
{"substance": "epidermal growth factor (NSYPGCPSSYDGYCLNGGVCMHIESLDSYTCNCVIGYSGDRCQTRDLRWWELR; Epidermal growth factor; UniProt P01132 977-1029, looked up) [EGF, Recombinant murine EGF from Peprotech; positive control for cell stimulation, reference compound]", "values": [{"measurement": "phosphorylation of EGFR, ErbB2, ErbB3, and ErbB4", "setting": "[1]", "result": "stimulated phosphorylation of multiple ErbBs"}, {"measurement": "stimulation of proliferation over control (EdU)", "setting": "[2]", "result": 31.5, "unit": "%"}, {"measurement": "increase in migration over control", "setting": "[3]", "result": 54, "unit": "%"}, {"measurement": "phosphorylation of Akt", "setting": "[4]", "result": "activated both cascades"}, {"measurement": "phosphorylation of ERK MAPK", "setting": "[5]", "result": "activated both cascades"}, {"measurement": "COX-2 expression", "setting": "[6]", "result": "induced"}]}
